Experimental data as given in patent publication US20250314644A1, “METHODS COMPRISING DETECTION OF ADP-HEPTOSE” (CHILDREN'S HOSPITAL MEDICAL CENTER, priority 2023, published 2025).

Experiments:
MDS BM cells = assay: Patient derived xenograft in NSG mice treated with ADP-heptose; type: in vivo, human; details: immunocompromised mice, after 28 days
Protocol: (§1) NOD.Cg-Prkdc^scidIl2rg^tm1Wj1/SzJ (NSG)^75 were bred and maintained by the CCHMC Comprehensive Mouse Core. For patient derived xenografts, NSG mice (sub-lethally conditioned with 2 Gy of whole-body irradiation) were injected tail vein with healthy CD34+ cells (1×10^6 cells per mouse) and MDS patient cells (5×10^6 cells per mouse) in 200 μl of sterile PBS. Mice were then given sterile water or ADP-heptose (0.5 mg/kg) dissolved in sterile water at the indicated times. Mice were monitored for human engraftment in BM aspirates Briefly, 1×10^6 BM cells from each sample were incubated with huCD45 (Cat no. 555485, BDPharmingen) and huCD33 (Cat no. 555450, BDPharmingen) antibodies diluted 1:100 in a solution of PBS, 0.2% FBS for 30 minutes on ice. Cells were washed once with PBS, resuspended in PBS with 0.2% FBS, and immediately analyzed by flow cytometry.

healthy BM cells = assay: Xenograft of healthy cells in NSG mice treated with ADP-heptose; type: in vivo, human; details: immunocompromised mice
Protocol: as §1

WT HSCs = assay: ADP-heptose treatment of low-dose irradiated chimeric mice: donor HSC number and engraftment; type: in vivo, mouse; details: ADP-heptose 0.5 mg/kg for 2 weeks
Source text: To model pre-leukemic clonal hematopoiesis, chimeric mice were generated as aas follows. Briefly, mixture of 1×10^6 whole bone marrow cells (WBM) were obtained from Poly (I:C) treated wild-type (Dnmt3a^+/+; MxCre^+, called Dnmt3a^WT) or mutant mice (Dnmt3a^f/f; MxCre^+, called Dnmt3a^KO) or double mutant mice (Dnmt3a^f/f; MxCre^+; Alpk1^KO, called Dnmt3a^KO; Alpk1^KO) (CD45.2^+), and transplanted into low-dose (2.5 Gy) irradiated recipient mice (CD45.1^+; 6-10 weeks of age). 8 weeks post-transplant, chimeric mice were treated with either water (H2O) or DSS (2.5%) for 1 week, and allowed to recover for 1 more week on water after which flow cytometry was performed on BM. In separate experiment, chimeric mice were pre-treated with broad spectrum antibiotics (ABX) for 4 weeks, and then subjected to DSS for 1 week after which flow cytometry performed on BM. In a separate set of experiment, chimeric mice were treated with either H2O or ADP-heptose (0.5 mg/kg) for 2 weeks, and flow cytometry performed after 2 more weeks on BM. In all the experiments, secondary transplantation was performed by purifying donor HSCs (CD45.2^+Lin^−Sca-1^+c-Kit^+Flk2^−CD150^+CD48^−) and transplanting 100 HSCs with 200,000 helper WBM cells (CD45.1+) into lethally irradiated (8 Gy) recipient mice (CD45.1^+), and donor chimerism in PB examined by flow cytometry.

[1] = system: Dnmt3a^KO; Alpk1^KO cells; assay: RNA-sequencing of HSPCs treated in vitro with ADP-heptose or H2O for 90 minutes; type: cell-based, mouse; details: vs H2O

Nc1ncnc2c1ncn2[C@@H]1O[C@H](COP(=O)(O)OP(=O)(O)O[C@@H]2O[C@H]([C@H](O)CO)[C@@H](O)[C@H](O)[C@@H]2O)[C@@H](O)[C@H]1O [ADP-heptose, ADP-D-glycero-β-D-manno-heptose] was tested, and the “expansion of xenografted MDS BM cells” value (MDS BM cells) was “expanded”, the “engraftment of healthy BM cells” value (healthy BM cells) was “no effect” and the “WT HSCs numbers and engraftment in recipient mice” value (WT HSCs) was “did not affect”. The “logFC 7fp418” value [1] was −0.871, the “logFC 1110019D14Rik” value [1] was −0.854 and the “logFC 1700037C18Rik” value [1] was 0.829. For the same compound, the “logFC 2810408A11Rik” value [1] was −0.812, the “logFC 4930451G09Rik” value [1] was 0.8284 and the “logFC 4933407K13Rik” value [1] was −0.692. For the same compound, the “logFC 5031425F14Rik” value [1] was 0.715, the “logFC 9330182L06Rik” value [1] was −1.241 and the “logFC A430105I19Rik” value [1] was 1.602. The “logFC A930013F10Rik” value [1] was 0.5873, the “logFC AI607873” value [1] was 0.7333 and the “logFC Abcb4” value [1] was 0.7782. The “logFC Ambp” value [1] was 0.8742, the “logFC Aqp1” value [1] was 0.6005 and the “logFC Arg1” value [1] was 1.214. For the same compound, the “logFC Azin2” value [1] was 0.7217, the “logFC BC100530” value [1] was −0.982 and the “logFC Bambi-ps1” value [1] was −0.651. The “logFC Caprin2” value [1] was −0.787, the “logFC Ces1d” value [1] was −0.735 and the “logFC Cgref1” value [1] was 1.029. For the same compound, the “logFC Ctsf” value [1] was −0.836, the “logFC Ctsk” value [1] was −0.954 and the “logFC D630023F18Rik” value [1] was −0.819. The “logFC Epha7” value [1] was −0.73, the “logFC Erdr1” value [1] was −1.542 and the “logFC Foxd4” value [1] was −0.677. The “logFC Gas6” value [1] was −0.682, the “logFC Gbp9” value [1] was 1.092 and the “logFC Gm4285” value [1] was −1.087. The “logFC Gm5069” value [1] was −0.82, the “logFC Gm15694” value [1] was 0.9249 and the “logFC Gm16023” value [1] was 0.8494. The “logFC Gm21057” value [1] was −1.133, the “logFC Hist1h1e” value [1] was −0.799 and the “logFC Hist1h2be” value [1] was −1.019. The “logFC Hist1h4h” value [1] was −1.162, the “logFC Hmga1” value [1] was −0.621 and the “logFC Irf7” value [1] was 0.6473. The “logFC Isg15” value [1] was 0.6427, the “logFC Kif1a” value [1] was −0.954 and the “logFC Kif9” value [1] was 1.387. For the same compound, the “logFC Lars2” value [1] was −1.194, the “logFC Lrrc51” value [1] was 1.737 and the “logFC Ltc4s” value [1] was 0.978. For the same compound, the “logFC Ly6i” value [1] was 0.764, the “logFC Nefh” value [1] was 0.6222 and the “logFC Nr1h3” value [1] was −0.655. The “logFC Oas1g” value [1] was 0.6168, the “logFC Oas2” value [1] was 0.8787 and the “logFC Oas3” value [1] was 0.6718. For the same compound, the “logFC Oasl1” value [1] was 0.7357, the “logFC Oasl2” value [1] was 0.9665 and the “logFC Paqr3” value [1] was −0.758. The “logFC Pcsk9” value [1] was −1.15, the “logFC Rhcg” value [1] was 1.146 and the “logFC Rn45s” value [1] was −1.533. The “logFC Rsad2” value [1] was 0.9464, the “logFC Rtp4” value [1] was 1.172 and the “logFC Sdhaf3” value [1] was −0.856. The “logFC Sfxn4” value [1] was −1.009, the “logFC Slfn5” value [1] was 1.078 and the “logFC Stac3” value [1] was 0.7901. For the same compound, the “logFC Stbd1” value [1] was 0.9881, the “logFC Stxbp3-ps” value [1] was −0.814 and the “logFC Syp” value [1] was 0.7928. For the same compound, the “logFC Tagln” value [1] was 1.205, the “logFC Tchh” value [1] was 1.26 and the “logFC Tle6” value [1] was −0.734. The “logFC Usp18” value [1] was 0.7247, the “logFC Xaf1” value [1] was 0.6469 and the “logFC Zbp1” value [1] was 0.6712. For the same compound, the “logFC Zdhhc2” value [1] was 0.7176, the “logFC Zdhhc15” value [1] was 0.9343 and the “logFC Zfp54” value [1] was −0.829.
